Results published in BindingDB's records for doi:10.1016/S0960-894X(97)00161-3 (1997).

What was measured:
[1] = Compound was tested for inhibition against Creatine kinase (CK)
[2] = Compound was tested for inhibition against Creatine kinase(CK)

| SMILES | Ki [1] [mM] | Ki [2] [mM] |
| --- | --- | --- |
| CN(CC(=O)O)C(=N)CP(=O)(O)O [Phosphocreatine analogue] | 1.4 | – |
| N=C(CP(=O)(O)O)NCC(=O)O [Phosphocreatine analogue] | – | 5.7 |
| N=C(CP(=O)(O)O)NCCC(=O)O [Phosphocreatine analogue] | 37 | – |
